Legend:
PAX6 = assay: qRT-PCR analysis of dorsal midbrain marker PAX6 in imDAP cells; assay type: cell-based, human; settings: exposure to Boost-CHIR 7.5 μM from Day 4 compared to from Day 5
Experimental: (1) qRT-PCR • 1. For qRT-PCR analysis of mRNA gene expression, RNA should be harvested from at least 2×10^6 cells. • 2. Harvest cells, add 350 μl of buffer RLT+1% (vol/vol) β-mercaptoethanol to the well, transfer the lysate to a 1.5 ml tube, and put it immediately on ice. • 3. Perform RNA extraction using the Tiangen Kit (DP430) and following the manufacturer's protocol ‘Purification of total RNA from animal and human cells’. • 4. When the RNA extraction was completed, determine the RNA concentration using a Nanodrop instrument. • 5. Perform the first-strand cDNA synthesis reaction with 1 μg of RNA using the HiScript™ II Q RT SuperMIX for qPCR (+gDNA wiper) Kit (Vazyme, #R223-01) for RT-qPCR. Follow the manufacturer's ‘First-Strand cDNA Synthesis’ protocol. This reaction would yield a 20 μl product. • 6. Dilute 10 μl cDNA product in 80 μl of nuclease-free water. • 7. […] In the analysis, the expression level of gene was determined by using a sample of undifferentiated hPSCs as control. • 8. Analyze the samples by running a quantitative PCR on the LightCycler 480 instrument using a 40x cycle two-step protocol with a 60° C., 60 sec annealing/elongation step and a 95° C., 30 sec denaturation step. […]

OTX2+ imDAP cells = assay: FACS analysis of OTX2 expression of imDAP cells derived from hiPSCs; assay type: cell-based, human; settings: 4-step protocol, Day 16
Experimental: • 1. Individualize and collect cells by either Accutase or TrypLE treatment. • 2. Wash cells with 1 ml PBS and pellet cells at 250×g for […]. • 3. Remove supernatant, add ˜200 μl of 4% PFA, mix and fix for 10 min at RT. • 4. Pellet cells at 350×g for 5 min. • 5. Wash cells by 1 ml of FACS buffer and pellet cells at 350×g for 5 min. • 6. Remove supernatant, add 200 μl/tube of FACS buffer/0.1% Triton X, mix for 10 min at RT. • 7. Wash cells by 1 ml of FACS buffer and pellet cells at 350×g for 5 min. • 8. Remove supernatant, add 200 μl/tube of primary antibody diluted in FACS buffer, mix gently, and incubate for 30 min at RT. • 9. Wash cells by 1 ml of FACS buffer and pellet cells at 350×g for 5 min. • 10. Remove supernatant, and add 200 μl of secondary antibody diluted in FACS buffer, mix gently, and incubate for 30 min at RT. • 11. Wash cells by 1 ml of FACS buffer and pellet cells at 300×g for 5 min. • 12. Remove supernatant, add 200 μl of FACS buffer, and run samples on the flow cytometer.
On Day-1, EB formation (Stage 1) was carried out by dissociating hiPSCs (Nuwacell) to form a single-cell suspension and resuspending it in Epic medium (Nuwacell, #RP01001) containing 10 μM Blebbistatin (MCE, #HY-13441) in T25 flasks on a belly dancer and culturing the cells overnight. On Day 0, ventral midbrain floor plate differentiation (Stage 2) was initiated by changing the medium to a Stage 2-1 differentiation medium containing DMEM: F12/B27 (plus Vitamin A) (98:2, v/v) as basal medium and supplemented with 0.5 μM LDN193189, 10 μM SB431542, 500 ng/mL SHH C24II, 2 μM Purmorphamine, 10 nM SAG and 1.2 μM CHIR99021 and culturing the cells for 3 Days. […] The cells of each group were stained with OTX2-FITC antibody (Miltenyi, #130-121-195), the percentage of OTX2+ imDAP cells were analyzed by flow cytometry (FIG. 8A). The cells obtained by Boost-CHIR treatment from D4 to D6, D7 or D8, or from D5 to D7 or D8 were analyzed by qRT-PCR for dorsal midbrain marker PAX6 (FIG. 8B).

Cc1cnc(-c2cnc(NCCNc3ccc(C#N)cn3)nc2-c2ccc(Cl)cc2Cl)[nH]1 [CHIR, CHIR99021]
expression of PAX6 (PAX6): lower | percentage of cells positive for OTX2 (OTX2+ imDAP cells; Boost-CHIR 7.5 μM from Day 4 to Day 6 (Stage 2-2)): 75.29% | percentage of cells positive for OTX2 (OTX2+ imDAP cells; Boost-CHIR 7.5 μM from Day 4 to Day 7 (Stage 2-2)): 71.92% | percentage of cells positive for OTX2 (OTX2+ imDAP cells; Boost-CHIR 7.5 μM from Day 4 to Day 8 (Stage 2-2)): 79.83%
